Measured values reported in patent US20040024024A1, “Aromatic sulfone hydroxamates and their use as protease inhibitors” (priority 2001, published 2004).

Legend:
Assay in all cases: In vitro MMP inhibition, IC50 determination (fluorogenic substrate I)
Format in all cases: biochemical
[1] = target: T1, Human recombinant MMP-1 (Homo sapiens, UniProt P03956)
T1 construct: made in house; host or cells: MMP-1-transfected HT-1080 cells (spent media)
T1 sequence (P03956 100-469): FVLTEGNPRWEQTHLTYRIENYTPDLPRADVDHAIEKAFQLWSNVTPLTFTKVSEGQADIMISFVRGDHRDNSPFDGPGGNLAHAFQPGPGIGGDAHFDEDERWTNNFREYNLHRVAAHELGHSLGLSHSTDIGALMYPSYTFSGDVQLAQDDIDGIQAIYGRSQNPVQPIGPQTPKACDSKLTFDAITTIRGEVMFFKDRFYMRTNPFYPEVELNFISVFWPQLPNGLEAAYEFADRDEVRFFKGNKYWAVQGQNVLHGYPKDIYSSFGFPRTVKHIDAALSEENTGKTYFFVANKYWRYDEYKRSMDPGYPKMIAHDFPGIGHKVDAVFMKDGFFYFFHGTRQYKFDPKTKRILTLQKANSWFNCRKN
Summary of the method: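 Inhibitor dilutions were made in 100 mM Tris-HCl/100 mM NaCl/10 mM CaCl2 buffer, pH 7.5, and incubated at room temperature with activated proenzyme (from transfected HT-1080 media; APMA or trypsin) and 4 μM quenched methoxycoumarin peptide substrate. Loss of 415 nm fluorescence (328 nm excitation) against concentration gave IC50.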

[2] = target: T2, Human recombinant MMP-2 (Homo sapiens, UniProt P08253)
T2 construct: made in house; host or cells: MMP-2-transfected p2AHT2 cells
T2 sequence (P08253 110-660): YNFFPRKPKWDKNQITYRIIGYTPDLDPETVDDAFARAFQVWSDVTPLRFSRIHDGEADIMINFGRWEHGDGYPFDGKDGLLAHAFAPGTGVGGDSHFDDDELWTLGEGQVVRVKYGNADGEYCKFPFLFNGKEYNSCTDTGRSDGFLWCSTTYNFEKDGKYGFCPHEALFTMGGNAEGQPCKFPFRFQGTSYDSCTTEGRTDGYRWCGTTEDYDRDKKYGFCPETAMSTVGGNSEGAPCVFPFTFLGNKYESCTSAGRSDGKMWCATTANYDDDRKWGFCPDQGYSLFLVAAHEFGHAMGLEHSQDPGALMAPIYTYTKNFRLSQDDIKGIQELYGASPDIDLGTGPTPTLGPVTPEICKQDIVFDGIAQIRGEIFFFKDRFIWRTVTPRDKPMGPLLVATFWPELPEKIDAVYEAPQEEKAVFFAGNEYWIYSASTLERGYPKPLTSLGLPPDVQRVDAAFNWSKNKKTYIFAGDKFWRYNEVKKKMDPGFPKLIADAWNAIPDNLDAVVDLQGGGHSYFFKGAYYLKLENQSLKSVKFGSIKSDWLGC
Summary of the method: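 IC50 was derived from the concentration-dependent fall in fluorescence (ex 328, em 415 nm) on Gly-Leu cleavage of 4 μM MCA/Dpa-quenched substrate I. Assays ran at room temperature in pH 7.5 Tris/NaCl/CaCl2/Brij buffer with MMP-2 activated by trypsin or APMA; inhibitors were diluted from 1% DMSO stocks.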

[3] = target: T3, Human recombinant MMP-9 (Homo sapiens, UniProt P14780)
T3 construct: made in house; host or cells: MMP-9-transfected HT1080 cells (spent media)
T3 sequence (P14780 107-707 limits assumed): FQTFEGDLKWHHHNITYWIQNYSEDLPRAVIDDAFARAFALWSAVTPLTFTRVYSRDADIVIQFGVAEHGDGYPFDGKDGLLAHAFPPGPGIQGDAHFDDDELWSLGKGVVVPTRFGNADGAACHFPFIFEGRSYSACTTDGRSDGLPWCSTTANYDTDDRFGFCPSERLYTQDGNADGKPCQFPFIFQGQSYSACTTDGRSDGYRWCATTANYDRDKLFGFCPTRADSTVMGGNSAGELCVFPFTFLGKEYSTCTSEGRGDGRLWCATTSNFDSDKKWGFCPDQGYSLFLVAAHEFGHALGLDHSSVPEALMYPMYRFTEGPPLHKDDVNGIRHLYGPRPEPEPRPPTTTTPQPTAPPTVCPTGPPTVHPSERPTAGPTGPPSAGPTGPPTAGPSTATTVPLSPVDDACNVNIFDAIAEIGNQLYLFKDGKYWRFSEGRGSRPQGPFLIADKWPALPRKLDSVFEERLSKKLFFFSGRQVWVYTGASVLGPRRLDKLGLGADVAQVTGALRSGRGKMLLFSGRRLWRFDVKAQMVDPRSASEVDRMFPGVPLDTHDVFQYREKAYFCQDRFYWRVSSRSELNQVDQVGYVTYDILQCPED
Summary of the method: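 Reduction in fluorescence (328 nm excitation, 415 nm emission) from cleavage of 4 μM quenched peptide substrate I, measured at room temperature against inhibitor concentration, gave IC50. Enzyme: trypsin- or APMA-activated MMP-9 purified from transfected HT1080 medium; buffer 100 mM Tris, 100 mM NaCl, 10 mM CaCl2, pH 7.5.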

[4] = target: T4, Human recombinant MMP-13 (Homo sapiens, UniProt P45452)
T4 construct: made in house; host or cells: baculovirus / insect cells
Summary of the method: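 Fluorescence at 415 nm (excitation 328 nm) reports Gly-Leu cleavage of 4 μM quenched methoxycoumarin peptide substrate I. Human recombinant MMP-13, activated by trypsin or APMA, was incubated at room temperature with varied inhibitor concentrations in pH 7.5 Tris/NaCl/CaCl2 buffer; IC50 derived from reduced fluorescence.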

[5] = target: T5, Human recombinant MMP-14 (Homo sapiens, UniProt P50281)
T5 construct: The catalytic domain enzyme was expressed in E. coli inclusion bodies, solubilized in urea; made in house
Summary of the method: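 IC50 came from reduced fluorescence (ex 328 nm, em 415 nm) as inhibitor concentration rose, with 4 μM substrate I cleaved at Gly-Leu. Room-temperature incubation in pH 7.5 Tris buffer with 10 mM CaCl2; the E. coli-expressed, refolded MMP-14 catalytic domain was activated with trypsin or APMA.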

[6] = value outside parentheses (Ki in parenthesis)

Row | SMILES | IC50 [1, 6] | IC50 [2, 6] | IC50 [3, 6] | IC50 [4, 6] | IC50 [5, 6] | IC50 ([1]; value outside parentheses) | IC50 ([2]; value outside parentheses) | IC50 ([3]; value outside parentheses) | IC50 ([4]; value outside parentheses) | IC50 ([5]; value outside parentheses)
1 | O=C(NO)C1(S(=O)(=O)c2ccc(OCCCO)cc2)CCOCC1 [Example 449] | 1930 nM | 3.7 nM | 41 nM | 7 nM | 58 nM |  |  |  |  | 
2 | COc1ccc(OCCCCOc2ccc(S(=O)(=O)C3(C(=O)NO)CCOCC3)cc2)cc1 [Example 450] | > 10000 nM | 6.6 nM | 44 nM | 0.9 nM | 4940 nM |  |  |  |  | 
3 | COc1cc(COCCCOc2ccc(S(=O)(=O)C3(C(=O)NO)CCOCC3)cc2)cc(OC)c1 [Example 453] | > 10000 nM | 13 nM | 800 nM | 3 nM | 5000 nM |  |  |  |  | 
4 | CCCCOCCCNc1ccc(S(=O)(=O)C2(C(=O)NO)CCOCC2)cc1 [Example 460] | > 10000 nM | 145 nM | 700 nM | 25 nM | > 10000 nM |  |  |  |  | 
5 | O=C(NO)C1(S(=O)(=O)c2ccc(NCCCCc3ccccc3)cc2)CCOCC1 [Example 462] | > 10000 nM | 11 nM | 18 nM | 7 nM | 6500 nM |  |  |  |  | 
6 | COc1ccc(CCCOc2ccc(S(=O)(=O)C3(C(=O)NO)CCOCC3)cc2)cc1 [Example 465] | > 10000 nM | 4 nM | 180 nM | 0.3 nM | 1800 nM |  |  |  |  | 
7 | COc1ccc(CCCOc2ccc(S(=O)(=O)C3(C(=O)NO)CCOCC3)cc2)cc1OC [Example 466] | > 10000 nM | 110 nM | 45 nM | 15 nM | > 10000 nM |  |  |  |  | 
8 | CC(CCc1ccccc1)Oc1ccc(S(=O)(=O)C2(C(=O)NO)CCOCC2)cc1 (centres unmarked) [Example 467] | > 10000 nM | 940 nM | 450 nM | 120 nM | > 10000 nM |  |  |  |  | 
9 | COC(C)CCOc1ccc(S(=O)(=O)C2(C(=O)NO)CCOCC2)cc1 (centres unmarked) [Example 472] | > 10000 nM | 3 nM | 40 nM | 6 nM | 400 nM |  |  |  |  | 
10 | COC(C)(C)CCOc1ccc(S(=O)(=O)C2(C(=O)NO)CCOCC2)cc1 [Example 473] | > 10000 nM | 5 nM | 45 nM | 5 nM | 600 nM |  |  |  |  | 
11 | CCCC(CCOc1ccc(S(=O)(=O)C2(C(=O)NO)CCOCC2)cc1)SC (centres unmarked) [Example 475] | > 10000 nM | 30 nM | 120 nM | 2 nM | 3600 nM |  |  |  |  | 
12 | CCCC(CCOc1ccc(S(=O)(=O)C2(C(=O)NO)CCOCC2)cc1)S(C)(=O)=O (centres unmarked) [Example 476] | > 10000 nM | 2500 nM | > 10000 nM | 230 nM | > 10000 nM |  |  |  |  | 
13 | O=C(NO)C1(S(=O)(=O)c2ccc(OCCC3CCCCC3)cc2)CCOCC1 [Example 478] | > 10000 nM | 1 nM | 34 nM | 5 nM | 1450 nM |  |  |  |  | 
14 | C/C(=C\c1ccccc1)COc1ccc(S(=O)(=O)C2(C(=O)NO)CCOCC2)cc1 [Example 479] | 2700 nM | 4 nM | 14 nM | 3 nM | 2000 nM |  |  |  |  | 
15 | O=C(NO)C1(S(=O)(=O)c2ccc(OC3CCOCC3)cc2)CCOCC1 [Example 480] | 4200 nM | 18 nM | 60 nM | 11 nM | 1400 nM |  |  |  |  | 
16 | CN(C)c1ccc(/C=C/CCCOc2ccc(S(=O)(=O)C3(C(=O)NO)CCOCC3)cc2)cc1 [Example 486] | > 10000 nM | 106 nM | 255 nM | 4.6 nM | > 10000 nM |  |  |  |  | 

Row | SMILES | IC50 [1, 6] | IC50 [2, 6] | IC50 [3, 6] | IC50 [4, 6] | IC50 [5, 6] | IC50 ([1]; value outside parentheses) | IC50 ([2]; value outside parentheses) | IC50 ([3]; value outside parentheses) | IC50 ([4]; value outside parentheses) | IC50 ([5]; value outside parentheses)
17 | COc1ccc(C(O)CCCCOc2ccc(S(=O)(=O)C3(C(=O)NO)CCOCC3)cc2)cc1 (centres unmarked) [Example 487] | > 10000 nM | 3.1 nM | 169 nM | 0.5 nM | 1570 nM |  |  |  |  | 
18 | O=C(CCCCOc1ccc(S(=O)(=O)C2(C(=O)NO)CCOCC2)cc1)c1ccc2ccccc2c1 [Example 489] | > 10000 nM | 58.2 nM | > 10000 nM | 0.4 nM | > 10000 nM |  |  |  |  | 
19 | CN(C)c1ccc(C(=O)CCCOc2ccc(S(=O)(=O)C3(C(=O)NO)CCOCC3)cc2)cc1 [Example 490] | > 10000 nM | 18.2 nM | 928 nM | 0.2 nM | 5630 nM |  |  |  |  | 
20 | COc1ccc(C(=O)CCCOc2ccc(S(=O)(=O)C3(C(=O)NO)CCOCC3)cc2)cc1 [Example 491] |  |  |  |  |  | 7310 nM | 6.8 nM | 94.2 nM | 0.8 nM | 981 nM
21 | O=C(CCCOc1ccc(S(=O)(=O)C2(C(=O)NO)CCOCC2)cc1)c1ccccc1 [Example 492] |  |  |  |  |  | 3550 nM | 3.5 nM | 67.3 nM | 0.7 nM | 574 nM
22 | COc1ccc(C(=O)CCOc2ccc(S(=O)(=O)C3(C(=O)NO)CCOCC3)cc2)cc1 [Example 494] |  |  |  |  |  | 1520 nM | < 0.1 nM | 13.6 nM | < 0.1 nM | 197 nM
23 | O=C(CCOc1ccc(S(=O)(=O)C2(C(=O)NO)CCOCC2)cc1)c1ccccc1 [Example 495] |  |  |  |  |  | 815 nM | 1.9 nM | 25.8 nM | 1.7 nM | 505 nM
24 | COc1ccc(-c2nnc(CCCOc3ccc(S(=O)(=O)C4(C(=O)NO)CCOCC4)cc3)o2)cc1 [Example 501] |  |  |  |  |  | > 10000 nM | 184 nM | 7710 nM | 1.4 nM | > 10000 nM
25 | O=C(NO)C1(S(=O)(=O)c2ccc(OCCSc3nc4ccc(Cl)cc4o3)cc2)CCOCC1 [Example 502] |  |  |  |  |  | > 10000 nM | 22.7 nM | 160 nM | 1 nM | 5640 nM
26 | O=C(NO)C1(S(=O)(=O)c2ccc(OCCOCc3ccccn3)cc2)CCOCC1 [Example 515] |  |  |  |  |  | > 10000 nM | 89.8 nM | 154 nM | 24.2 nM | > 10000 nM
27 | O=C(NO)C1(S(=O)(=O)c2ccc(OCCOCc3ccncc3)cc2)CCOCC1 [Example 516] |  |  |  |  |  | > 10000 nM | 41.9 nM | 120 nM | 9.55 nM | 9430 nM
28 | O=C(NO)C1(S(=O)(=O)c2ccc(OCCCOCc3ccccn3)cc2)CCOCC1 [Example 519] |  |  |  |  |  | > 10000 nM | 170 nM | 422 nM | 2.18 nM | > 10000 nM
29 | O=C(NO)C1(S(=O)(=O)c2ccc(OCCCOCc3cccnc3)cc2)CCOCC1 [Example 520] |  |  |  |  |  | > 10000 nM | 54.2 nM | 36.4 nM | 0.62 nM | 4300 nM
30 | O=C(NCCSc1ccc(S(=O)(=O)C2(C(=O)NO)CCOCC2)cc1)c1nc2ccccc2o1 [Example 576] |  |  |  |  |  | > 10000 nM | 233 nM | 397 nM | 0.3 nM | > 10000 nM
31 | O=C(NO)C1(S(=O)(=O)c2ccc(OCCCc3cc(-c4ccc(F)c(F)c4)cs3)cc2)CCOCC1 [Example 580] |  |  |  |  |  | > 10000 nM | 136 nM | 417 nM | 0.6 nM | > 10000 nM
